Measured values published in patent US7910582B2, “Cyclopropyl amines as modulators of the histamine H3 receptor” (Janssen Pharmaceutica NV, priority 2005, dated 2011).
Entries after “also recorded” stand apart in the source; their conditions may differ. Read-outs that look alike come from different tables or passages of the source.

Legend:
[1] = Measured pKa, log P and log D (determined by pION, Inc.); assay type: physicochemical; settings: for pKa: read-out: pKa (meas.)
Experimental: Measured pKa, log P, and log D values were determined by pION, Inc. (Woburn, Mass.).

Human H3 Receptor [2] = biological target: T1, Human H3 Receptor (Homo sapiens, UniProt Q9Y5N1); experiment: [3H]-N-Methylhistamine binding, membranes of H3 receptor-expressing SK-N-MC cells; settings: 0.8 nM [3H]-N-methylhistamine, 60 min at 25° C., average of results; read-out: Ki
T1 construct: expressed in transfected cells
T1 sequence (Q9Y5N1 whole entry): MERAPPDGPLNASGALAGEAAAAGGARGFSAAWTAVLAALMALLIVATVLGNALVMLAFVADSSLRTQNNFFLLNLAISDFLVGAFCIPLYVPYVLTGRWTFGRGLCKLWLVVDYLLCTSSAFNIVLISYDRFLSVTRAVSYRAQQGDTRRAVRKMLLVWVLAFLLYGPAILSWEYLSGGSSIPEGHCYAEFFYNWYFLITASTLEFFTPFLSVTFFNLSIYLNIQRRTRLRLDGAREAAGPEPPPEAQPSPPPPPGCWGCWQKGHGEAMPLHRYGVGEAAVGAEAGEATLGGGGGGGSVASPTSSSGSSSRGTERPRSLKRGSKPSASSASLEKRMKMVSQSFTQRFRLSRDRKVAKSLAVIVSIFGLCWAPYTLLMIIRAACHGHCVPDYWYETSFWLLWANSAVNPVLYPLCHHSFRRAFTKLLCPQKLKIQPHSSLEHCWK
Experimental: (§1) Cells were grown to about 70% to 80% confluence and removed from the plate with trypsin and pelleted in a clinical centrifuge. The pellet was then re-suspended in 400 μL of complete media and transferred to an electroporation cuvette with a 0.4 cm gap between the electrodes (Bio-Rad #165-2088). One μg supercoiled H3 receptor cDNA was added to the cells and mixed gently. The voltage for the electroporation was set at 0.25 kV and the capacitance was set at 960 μF. After electroporation the cells were diluted with 10 mL of complete media and were plated onto four 10 cm dishes at the following ratios: 1:20, 1:10, 1:5, and 1:2. The cells were allowed to recover for 24 h before adding 600 μg G-418. Colonies that survived selection were grown and tested. SK-N-MC cells were used because they give efficient coupling for inhibition of adenylate cyclase. The clones that gave the most robust inhibition of adenylate cyclase in response to histamine were used for further study.
Cell pellets from histamine H3 receptor-expressing SK-N-MC cells were homogenized in 50 mM TrisHCl/0.5 mM EDTA. Supernatants from an 800 g spin were collected and were recentrifuged at 30,000 g for 30 min. Pellets were re-homogenized in 50 mM Tris/5 mM EDTA (pH 7.4). Membranes were incubated with 0.8 nM [^3H]-N-methylhistamine plus/minus test compounds for 60 min at 25° C. and were harvested by rapid filtration over GF/C glass fiber filters (pretreated with 0.3% polyethylenimine) followed by four washes with buffer. Filters were added to 5 mL of scintillation cocktail, and the signal was then counted on a liquid scintillation counter.

Human H3 Receptor [3] = biological target: T1, Human H3 Receptor; experiment: Cyclic AMP accumulation, SK-N-MC cells with reporter construct and human H3 receptor (pA2); assay type: cell-based; settings: pA2, average of results
Experimental: as §1, with “The pellet was then re-suspended in 400 μL of complete media and transferred to an electroporation cuvette with a 0.4 cm gap between the electrodes (Bio-Rad #165-2088).” left out, “The cells were allowed to recover for 24 h before adding 600 μg G-418.” left out
Sublines of SK-N-MC cells were created that expressed a reporter construct and the human H3 receptor.

[4] = Pharmacokinetics and bioanalysis in the rat; assay type: in vivo, male Sprague Dawley Rats; settings: for AUC(0-inf): read-out: AUCINF (h-μmol/mL)
Experimental: One group of six male Sprague Dawley Rats (approx. 300 g body weight; three animals per time point) was used. They were group-housed, provided food and water ad libitum, and were maintained on a 12-h light and dark cycle. Animals were acclimatized for at least 7 days after receipt from the vendor prior to investigations.
For oral dosing, test compounds were formulated at 1 mg/mL in 0.5% hydroxypropyl methyl cellulose and delivered at a dose of 10 mg/kg. Citric acid salt forms (prepared as described for Example 1B) of the test compounds were used. Animals received a bolus dose of 10 mg/kg (10 mL/kg) for each compound via a 16 gauge intragastric gavage. For intravenous dosing, test compounds were formulated at 1 mg/mL in 5% dextrose in water and dosed at 1 mg/kg (1 mL/kg) with a bolus intravenous dose via a 24-gauge Terumo® Surflo® catheter in the lateral tail vein. All dosing solutions were prepared immediately prior to injection.
Blood samples (250 μL) were taken from the lateral tail vein into heparinized Natelson blood collection tubes and expelled into 1.5 mL mcirocentrifuge tubes. The blood samples were centrifuged for 5 min at 14,000 rpm in a micro-centrifuge. Plasma was retained and kept in a −20° C. freezer until analysis by LC-MS/MS.
Data analysis was performed using WinNonlin version 3.3 or 4.0.1. A non -compartmental model (#200 for Extravascular administration and #201 for i.v.) was used to determine the pharmacokinetic parameters shown in Tables 4 and 5 (NA=not applicable or not determined).

[5] = male, Sprague Dawley, iv, i.v. 1 mg/kg, citric acid salt, plasma
[6] = male, Sprague Dawley, oral 10 mg/kg, citric acid salt, plasma
[7] = oral 10 mg/kg, citric acid salt
[8] = compared with isopropyl / cyclobutyl analogs

SMILES	logD [1]	logP [1]	pKa [1]	pKa ([1]; second value)	Ki (Human H3 Receptor [2])	Kb (Human H3 Receptor [3])	CI ([4]; i.v. 1 mg/kg, citric acid salt)	Cmax [4, 5]	AUC(0-inf) [4, 5]	Cmax [4, 6]	Tmax [4, 6]	half-life [4, 6]	AUC(0-inf) [4, 6]	CI [4, 7]	Vd [4, 7]	other results
O=C(c1ccc(CN2CCOCC2)cc1)N1CCN(C2CCC2)CC1 [Comparative Example 2, (4-Cyclobutyl-piperazin-1-yl)-(4-morpholin-4-ylmethyl-phenyl) -methanone]	1.77	2.09	7.4	6.5	1 nM	0.316 nM										
CC(C)N1CCN(C(=O)c2ccc(CN3CCC(F)CC3)cc2)CC1.O=C(O)CC(O)(CC(=O)O)C(=O)O [Comparative Example 3B, [4-(4-Fluoro-piperidin-1-ylmethyl)-phenyl]-(4-isopropyl-piperazin-1-yl)-methanone citrate salt]					1 nM	0.251 nM	44.2 mL/min/kg	1490 nM	1.16 µM·h	160 nM	1.33 h	8.22 h	1.95 µM·h	270 mL/min/kg	180 L/kg	Vd ([4]; i.v. 1 mg/kg, citric acid salt): 29.2 L/kg; T1/2 ([4]; i.v. 1 mg/kg, citric acid salt, plasma): 7.60 h
O=C(c1ccc(CN2CCC(F)CC2)cc1)N1CCN(C2CCC2)CC1 [Comparative Example 4, (4-Cyclobutyl-piperazin-1-yl)-[4-(4-fluoro-piperidin-1-ylmethyl)-phenyl]-methanone]					0.7 nM	0.1 nM										
CC(C)N1CCN(C(=O)c2ccc(CN3CCOC(CO)C3)cc2)CC1 (stereo not drawn) [Comparative Example 6, [4-(2-Hydroxymethyl-morpholin-4-ylmethyl)-phenyl]-(4-isopropyl-piperazin-1-yl)-methanone]					6 nM	6.31 nM										
O=C(c1ccc(CN2CCOCC2)cc1)N1CCN(C2CC2)CC1 [Example 1, (4-Cyclopropyl-piperazin-1-yl)-(4-morpholin-4-ylmethyl-phenyl) -methanone]	0.86	0.89	6.5	5.3	5.4 nM	3.98 nM										measured pKa (basicity) relative to calculated value and to isopropyl / cyclobutyl amine analogs [1]: significantly lower; also recorded: significant decrease in basicity
O=C(O)CC(O)(CC(=O)O)C(=O)O.O=C(c1ccc(CN2CCC(F)CC2)cc1)N1CCN(C2CC2)CC1 [Example 2B, (4-Cyclopropyl-piperazin-1-yl)-[4-(4-fluoro-piperidin-1-ylmethyl)-phenyl]-methanone citrate salt]					2 nM	1 nM	41.4 mL/min/kg	3780 nM	1.37 µM·h	420 nM	1.67 h	2.72 h	1.91 µM·h	431 mL/min/kg	112 L/kg	half-life (T1/2) relative to the comparative examples [4, 8]: shorter T1/2; volume of distribution (Vd) relative to the comparative examples [4, 8]: lower Vd; half-life [4, 5]: 1.11 h; Vd ([4]; male, Sprague Dawley, plasma, iv, i.v. 1 mg/kg, citric acid salt, read-out: Vd): 3.94 L/kg
